Measurements: patent US11161884B2 (SAVID THERAPEUTICS INC., priority 2014, dated 2021)

Assays:
[1] = tested on: Rituximab-scFv-V2122; assay: Flow cytometry: binding of FITC-labeled compound to Rituximab-scFv-V2122 on RAMOS cell; type: cell-based; details: RAMOS cells pre-incubated with Rituximab-scFv-V2122; compound 3 nM, 10 nM, 30 nM
Procedure: The thus refolded and purified Rituximab-scFv-V2122 was evaluated regarding binding potential with RAMOS (human Burkitt lymphoma) cell (JCRB Cell Bank), which is a CD20 positive cell. More specifically, Rituximab-scFv-V2122 was diluted with PBS into three concentrations (0.05, 0.5, 5 μg/mL). 1×10^6 cells were placed in a 1.5 mL tube, centrifuged at 400×g for 4 minutes, and the supernatant was discarded to collect the cells. The collected cells were added with 100 μL of the diluted Rituximab-scFv-V2122, mixed well, and then incubated on ice for 30 minutes. The content was centrifuged again, the supernatant was discarded, added with 1 mL of PBS to wash the cells, and the cells were then collected. […] After the incubation, the content was centrifuged again, the supernatant was discarded, added with 1 mL of PBS to wash the cells, and the cells were then collected. The collected cells were suspended in 500 μL of PBS, and measured on a flow cytometer (guava easyCyte Single System; Merck Millipore).

[2] = tested on: DLD1 tumor; assay: In vivo imaging, DLD1 heterotransplantation model; set-up: species or system nude mice; details: pre-mixed with the antibody, intravenous
Procedure: The thus purified anti-epiregulin scFv-V2122 was mixed with Psyche F-IRDye 800 (Compound 44 in Example) dissolved in DMSO (final concentration was ten-fold molar concentration), and the mixture was incubated on ice for 10 minutes. The buffer was then replaced with Japanese Pharmacopoeia physiological saline (Otsuka Pharmaceutical Co., Ltd.) using Zeba Spin Desalting Column (Thermo Fisher Scientific Inc.) and was stored under cooling. Epiregulin IgG was labeled using ICG Labeling Kit-NH2 (Dojindo Laboratories).
Suspension liquid of human colorectal cancer-derived DLD1 cell and Matrigel Matrix (Corning) were mixed in a ratio of 1:1 (5×10^6 cells/0.1 mL), and 0.1 mL of the mixed liquid was administered subcutaneously in the left side of 5 to 6-week-old female nude mice (Sankyo Labo Service Corporation, Inc.). The mice were bred for several weeks to produce tumor. One week before imaging, the feed was switched to a low fluorescence feed (iVid #1, Oriental Yeast Co., Ltd.) and the breeding was continued. […]
Anti-epiregulin scFv-V2122 antibody (25 μg, 50 μg, 100 μg) preliminarily labeled with fluorescence by allowing it to react with Psyche F-IRDye 800 (Compound 44 in Example), or fluorescent-labeled epiregulin IgG (50 μg) was intravenously administered to nude mice having established DLD1 tumor. […]

[3] = tested on: human Burkitt lymphoma Ramos tumor; assay: In vivo imaging, Ramos heterotransplantation model; set-up: species or system nude mice; details: pre-mixed with the antibody, intravenous
Procedure: The thus purified Rituximab-scFv-V2122 was preliminarily mixed with Psyche F-IRDye 800 (Compound 44 in Example) dissolved in DMSO (final concentration is ten-fold molar concentration), and incubated on ice for 10 minutes. The buffer was then replaced with Japanese Pharmacopoeia physiological saline (Otsuka Pharmaceutical Co., Ltd.) using Zeba Spin Desalting Column (Thermo Fisher Scientific Inc.).
Ramos cell suspension and Matrigel Matrix (Corning) were mixed in a ratio of 1:1 (5×10^6 cells/0.1 mL), and 0.1 mL of the mixed liquid was administered subcutaneously in the left side of 5 to 6-week-old female nude mice (Sankyo Labo Service Corporation, Inc.). The mice were bred for several weeks to produce tumor. One week before imaging, the feed was switched to a low fluorescence feed (iVid #1, Oriental Yeast Co., Ltd.) and the breeding was continued. […]
Rituximab-scFv-V2122 antibody (25 μg, 50 μg, 100 μg), preliminarily labeled with fluorescence by reacting it with Psyche F-IRDye 800 (Compound 44 in Example), was intravenously administered to nude mice having established human Burkitt lymphoma Ramos. For investigation into accumulation in tumor, accumulation of IRDye 800 in the tumor was evaluated 2, 24 and 48 hours after the administration, using in vivo photo-imaging instrument Clairvivo OPT plus (Shimadzu Corporation) (FIG. 19).

[4] = biological target: T1, V2122 (Streptomyces avidinii, UniProt P22629, E125D/E140N/N47D/N73G/R108K/R127K/S51D/S69N/Y107S/Y46S); assay: ITC binding analysis of V2122 and compounds; details: 25 μM V2122, PBS, 25° C.
T1 construct: T7-Tag; made in house
Procedure: Microcal iTC200 (MicroCal, Northampton, Mass.) was used for the measurement.
For the measurement, concentration of the stock solutions was adjusted to a ten-fold concentration of V2122 to be measured. Into a cell of a calorimeter, 25 μM of V2122 was placed, and each solution was added dropwise at a stirring speed of 1000 rpm at 25° C. Obtained data was analyzed using ORIGIN, and the titration curve was fitted based on the one-site binding isotherm.

[5] = biological target: T1, V2122; assay: SPR analysis of affinity between V2122 and compound; type: binding
Procedure: Interaction of V2122, which is a LISA314 modified protein purified as described above, with Compound C was investigated by surface plasmon resonance (SPR). More specifically, using Biacore T200 (GE Healthcare BioScience Corp.) as a measuring instrument, and Sensor Chip NTA (GE Healthcare BioScience Corp.) as a sensor chip, the protein was immobilized on the sensor chip by way of His-Tag having been fused to the core protein. The running buffer was prepared using HBS-P(+), as described in the manual. A two-fold dilution series was prepared in nine steps by diluting a 1600 nM solution using the running buffer. The affinity was measured in the kinetics mode, and acquired data was subjected to equilibrium analysis using Biacore T200 Evaluation Software to determine the affinity.

T1 sequence (P22629 37-163 Y46S/N47D/S51D/S69N/N73G/Y107S/R108K/E125D/R127K/E140N): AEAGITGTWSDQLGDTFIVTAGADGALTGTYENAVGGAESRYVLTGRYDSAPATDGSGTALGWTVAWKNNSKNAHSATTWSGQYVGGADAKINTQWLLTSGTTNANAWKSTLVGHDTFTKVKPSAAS

In the case of `N=C1N[C@H]2[C@H](CS[C@H]2CCCCC(=O)NCCCCCC(=O)Nc2cc(NC(=O)CCCCCNC(=O)CCCC[C@@H]3SC[C@@H]4NC(=N)N[C@@H]43)cc(C(=O)NCCOCCOCCNC(=S)Nc3ccc4c(c3)C(=O)OC43c4ccc(O)cc4Oc4cc(O)ccc43)c2)N1` [FITC-labeled Compound B], the “binding with Rituximab-scFv-V2122, shifts of fluorescence intensity” value [1] is reported as “concentration-dependent shifts of fluorescence intensity were also confirmed”.

With `COC(=O)[C@H](CCCCNC(=O)c1cc(NC(=O)NCCOCCOCCNC(=O)CCCCC[N+]2=C(/C=C/C3=C(Oc4ccc(S(=O)(=O)O)cc4)C(=C/C=C4/N(CCCCS(=O)(=O)O)c5ccc(S(=O)(=O)O)cc5C4(C)C)/CCC3)C(C)(C)c3cc(S(=O)(=O)[O-])ccc32)cc(C(=O)NCCCC[C@H](NC(=O)CCCC[C@@H]2SC[C@@H]3NC(=N)N[C@@H]32)C(=O)OC)c1)NC(=O)CCCC[C@@H]1SC[C@@H]2NC(=N)N[C@@H]21` [Compound 44, 1-(1-((3,5-Bis(((S)-5-(5-((3aS,4S,6aR)-2-iminohexahydro-1H-thieno[3,4-d]imidazole-4-yl)pentanamido)-6-methoxy-6-oxohexyl)carbamoyl)phenyl)amino)-1,12-dioxo-5,8-dioxa-2,11-diazaheptadecane-17-yl)-2-((E)-2-((E)-3-(2-((E)-3,3-dimethyl-5-sulfo-1-(4-sulfobutyl)indoline-2-ilidene)ethylidene)-2-(4-sulfophenoxy)cyclohex-1-ene-1-yl)vinyl)-3,3-dimethyl-3H-indol-1-ium-5-sulfonate] the “binding with anti-epiregulin scFv-V2122 antibody in vivo” value [2] was “remain bound in vivo” and the “binding with Rituximab-scFv-V2122 antibody in vivo” value [3] was “remain bound in vivo”.

For `O=C(O)CCCC[C@@H]1SC[C@@H]2NC(=O)N[C@@H]21` [biotin, reference compound], the “interaction with V2122 measured by ITC” value [4] was “non-interactive”.

In the case of `N=C1N[C@H]2[C@H](CS[C@H]2CCCCC(=O)NCCCCCC(=O)NCCNC(=O)CCCCCNC(=O)CCCC[C@@H]2SC[C@@H]3NC(=N)N[C@@H]32)N1` [Compound 7, (3aS,3a′S,4S,4′S,6aR,6a′R)-4,4′-(5,12,17,24-Tetraoxo-6,13,16,23-tetraazaoctacosane-1,28-diyl)bis[tetrahydro-1H-thieno[3,4-d]imidazole-2(3H)-iminium] di(2,2,2-trifluoroacetate)], the Kd [5] is reported as 3.15 nM and the “interaction with V2122 measured by ITC” value [4] is reported as “exothermic, suggesting a strong binding”.
